{
  "source": "PubChem BioAssay AID1117331",
  "tested_on": "INS-1E rat insulinoma, insulin secretion, 5 mM glucose",
  "assay": "cell-based inhibition of insulin secretion, rat insulinoma INS-1E, 5 mM glucose, concentration response (AID 1117331)",
  "note": "Calls of active or inactive are those of the source. No rule for the calls is given here.",
  "data": [
    {"smiles": "Cc1ccc([N+](=O)[O-])[c]2c1[O][Hg]2", "values": [
      {"measurement": "IC50", "result": "> 33.3 µM (inactive)"}
    ]}
  ]
}
